Columns and labels:
[1] = target: T1, Broad substrate specificity ATP-binding cassette transporter ABCG2 (Homo sapiens, UniProt Q9UNQ0); experiment: Inhibition of human ABCG2 transfected in human HEK293 cells assessed as inhibition of mitoxantrone efflux measured after 30 mins by FACS Calibur cytometric analysis; format: cell-based
T1 sequence (Q9UNQ0 whole entry): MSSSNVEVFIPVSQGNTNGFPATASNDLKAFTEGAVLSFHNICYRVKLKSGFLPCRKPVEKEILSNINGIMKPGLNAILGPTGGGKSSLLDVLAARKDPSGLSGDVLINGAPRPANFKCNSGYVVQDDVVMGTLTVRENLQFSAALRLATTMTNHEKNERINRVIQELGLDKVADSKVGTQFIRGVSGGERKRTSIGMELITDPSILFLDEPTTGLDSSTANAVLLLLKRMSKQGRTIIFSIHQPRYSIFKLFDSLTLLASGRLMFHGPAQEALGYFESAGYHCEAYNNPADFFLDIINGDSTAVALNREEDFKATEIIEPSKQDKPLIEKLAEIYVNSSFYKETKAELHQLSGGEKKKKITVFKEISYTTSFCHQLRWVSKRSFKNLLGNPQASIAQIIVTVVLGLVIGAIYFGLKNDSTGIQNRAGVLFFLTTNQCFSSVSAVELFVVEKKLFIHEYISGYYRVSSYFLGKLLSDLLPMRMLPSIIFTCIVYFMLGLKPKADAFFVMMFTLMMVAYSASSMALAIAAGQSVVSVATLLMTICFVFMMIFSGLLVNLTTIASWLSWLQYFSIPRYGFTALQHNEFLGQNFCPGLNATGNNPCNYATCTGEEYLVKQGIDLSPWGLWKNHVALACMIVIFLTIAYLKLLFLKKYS

[2] = target: T1, Broad substrate specificity ATP-binding cassette transporter ABCG2; experiment: Mixed inhibition of human ABCG2 transfected in human HEK293 cells assessed as Ki1 for inhibition of mitoxantrone efflux measured after 30 mins by FACS Calibur cytometric analysis; format: cell-based
[3] = target: T1, Broad substrate specificity ATP-binding cassette transporter ABCG2; experiment: Mixed inhibition of human ABCG2 transfected in human HEK293 cells assessed as Ki2 for inhibition of mitoxantrone efflux measured after 30 mins by FACS Calibur cytometric analysis; format: cell-based
[4] = target: T1, Broad substrate specificity ATP-binding cassette transporter ABCG2; experiment: Mixed inhibition of human ABCG2 transfected in human HEK293 cells assessed as Ki1 for inhibition of Hoechst33342 efflux measured after 30 mins by FACS Calibur cytometric analysis; format: cell-based
[5] = target: T2, ATP-dependent translocase ABCB1 (Homo sapiens, UniProt P08183); experiment: Inhibition of human P-gp1 transfected in mouse NIH3T3 cells assessed as inhibition of Calcein-AM efflux measured after 30 mins by FACS Calibur cytometric analysis; format: cell-based; details: nih3t3, 0.5 h
[6] = target: T1, Broad substrate specificity ATP-binding cassette transporter ABCG2; experiment: Mixed inhibition of human ABCG2 transfected in human HEK293 cells assessed as Ki2 for inhibition of Hoechst33342 efflux measured after 30 mins by FACS Calibur cytometric analysis; format: cell-based
[7] = target: Multidrug resistance-associated protein 1 (Homo sapiens, UniProt P33527); experiment: Inhibition of human MRP1 transfected in human HEK293 cells assessed as inhibition of Calcein-AM efflux measured after 30 mins by FACS Calibur cytometric analysis; format: cell-based; details: hek293, 0.5 h
[8] = Growth inhibition of human HEK293 cells after 72 hrs by MTT assay; format: cell-based; details: read-out: IG50
ABCG2 [9] = experiment: Therapeutic ratio of IG50 for growth inhibition of human HEK293 cells to IC50 for inhibition of human ABCG2 expressed in human HEK293 cells; format: toxicity, cell-based
[10] = target: T1, Broad substrate specificity ATP-binding cassette transporter ABCG2; experiment: Uncompetitive inhibition of human ABCG2 transfected in human HEK293 cells assessed as Ki2 for inhibition of mitoxantrone efflux measured after 30 mins by FACS Calibur cytometric analysis; format: cell-based
[11] = Growth inhibition of human HEK293 cells overexpressing human ABCG2 after 72 hrs by MTT assay; format: ADME, cell-based; details: read-out: IG50
ABCG2 [12] = experiment: Therapeutic ratio of IG50 for growth inhibition of human HEK293 cells overexpressing human ABCG2 to IC50 for inhibition of human ABCG2 expressed in human HEK293 cells; format: toxicity, cell-based
[13] = target: T2, ATP-dependent translocase ABCB1; experiment: Inhibition of human P-gp1 transfected in mouse NIH3T3 cells assessed as inhibition of Rhodamine123 efflux measured after 30 mins by FACS Calibur cytometric analysis; format: cell-based; details: nih3t3, 0.5 h
[14] = target: T1, Broad substrate specificity ATP-binding cassette transporter ABCG2; experiment: Non-competitive inhibition of human ABCG2 transfected in human HEK293 cells assessed as Ki2 for inhibition of mitoxantrone efflux measured after 30 mins by FACS Calibur cytometric analysis; format: cell-based

Multidrug resistance-associated protein 1, sequence (P33527 whole entry): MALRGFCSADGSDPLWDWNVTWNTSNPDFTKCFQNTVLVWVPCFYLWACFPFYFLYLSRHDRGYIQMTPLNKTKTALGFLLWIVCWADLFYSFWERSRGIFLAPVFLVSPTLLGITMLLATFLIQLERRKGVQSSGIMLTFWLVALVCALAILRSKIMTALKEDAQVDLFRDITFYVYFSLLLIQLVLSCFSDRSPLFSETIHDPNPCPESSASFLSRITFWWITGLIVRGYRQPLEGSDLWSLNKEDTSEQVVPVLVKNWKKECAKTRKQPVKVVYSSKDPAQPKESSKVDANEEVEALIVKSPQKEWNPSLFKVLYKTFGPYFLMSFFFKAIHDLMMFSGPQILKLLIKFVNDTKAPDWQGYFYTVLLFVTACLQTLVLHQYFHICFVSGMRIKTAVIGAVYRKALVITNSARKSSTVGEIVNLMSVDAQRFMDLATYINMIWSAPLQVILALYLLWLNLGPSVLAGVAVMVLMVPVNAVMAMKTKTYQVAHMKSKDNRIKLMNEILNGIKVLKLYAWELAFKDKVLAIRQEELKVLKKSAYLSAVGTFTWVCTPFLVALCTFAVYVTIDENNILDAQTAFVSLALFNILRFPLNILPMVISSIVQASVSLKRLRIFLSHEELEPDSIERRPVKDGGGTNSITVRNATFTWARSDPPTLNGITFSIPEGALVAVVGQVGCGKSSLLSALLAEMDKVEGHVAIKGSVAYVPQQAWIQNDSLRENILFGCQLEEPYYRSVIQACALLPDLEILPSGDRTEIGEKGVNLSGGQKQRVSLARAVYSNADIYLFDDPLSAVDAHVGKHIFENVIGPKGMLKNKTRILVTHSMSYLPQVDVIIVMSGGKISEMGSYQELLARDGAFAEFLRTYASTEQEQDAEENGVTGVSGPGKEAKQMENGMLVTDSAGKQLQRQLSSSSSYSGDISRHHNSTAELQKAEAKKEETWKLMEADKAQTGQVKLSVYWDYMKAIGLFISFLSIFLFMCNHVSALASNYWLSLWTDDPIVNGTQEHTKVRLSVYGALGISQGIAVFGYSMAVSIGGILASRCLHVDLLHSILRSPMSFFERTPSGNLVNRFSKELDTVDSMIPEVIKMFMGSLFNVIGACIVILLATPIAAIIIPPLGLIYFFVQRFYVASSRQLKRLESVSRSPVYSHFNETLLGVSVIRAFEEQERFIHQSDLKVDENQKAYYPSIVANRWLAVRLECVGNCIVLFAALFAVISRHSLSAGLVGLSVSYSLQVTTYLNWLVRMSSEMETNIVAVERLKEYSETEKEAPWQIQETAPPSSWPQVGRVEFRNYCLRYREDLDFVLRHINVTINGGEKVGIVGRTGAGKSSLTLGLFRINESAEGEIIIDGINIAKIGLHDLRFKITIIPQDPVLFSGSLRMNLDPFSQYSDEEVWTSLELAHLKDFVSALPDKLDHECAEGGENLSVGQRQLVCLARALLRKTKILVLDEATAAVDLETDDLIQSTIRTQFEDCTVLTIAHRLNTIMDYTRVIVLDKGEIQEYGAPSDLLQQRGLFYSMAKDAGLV
T2 sequence (P08183 whole entry): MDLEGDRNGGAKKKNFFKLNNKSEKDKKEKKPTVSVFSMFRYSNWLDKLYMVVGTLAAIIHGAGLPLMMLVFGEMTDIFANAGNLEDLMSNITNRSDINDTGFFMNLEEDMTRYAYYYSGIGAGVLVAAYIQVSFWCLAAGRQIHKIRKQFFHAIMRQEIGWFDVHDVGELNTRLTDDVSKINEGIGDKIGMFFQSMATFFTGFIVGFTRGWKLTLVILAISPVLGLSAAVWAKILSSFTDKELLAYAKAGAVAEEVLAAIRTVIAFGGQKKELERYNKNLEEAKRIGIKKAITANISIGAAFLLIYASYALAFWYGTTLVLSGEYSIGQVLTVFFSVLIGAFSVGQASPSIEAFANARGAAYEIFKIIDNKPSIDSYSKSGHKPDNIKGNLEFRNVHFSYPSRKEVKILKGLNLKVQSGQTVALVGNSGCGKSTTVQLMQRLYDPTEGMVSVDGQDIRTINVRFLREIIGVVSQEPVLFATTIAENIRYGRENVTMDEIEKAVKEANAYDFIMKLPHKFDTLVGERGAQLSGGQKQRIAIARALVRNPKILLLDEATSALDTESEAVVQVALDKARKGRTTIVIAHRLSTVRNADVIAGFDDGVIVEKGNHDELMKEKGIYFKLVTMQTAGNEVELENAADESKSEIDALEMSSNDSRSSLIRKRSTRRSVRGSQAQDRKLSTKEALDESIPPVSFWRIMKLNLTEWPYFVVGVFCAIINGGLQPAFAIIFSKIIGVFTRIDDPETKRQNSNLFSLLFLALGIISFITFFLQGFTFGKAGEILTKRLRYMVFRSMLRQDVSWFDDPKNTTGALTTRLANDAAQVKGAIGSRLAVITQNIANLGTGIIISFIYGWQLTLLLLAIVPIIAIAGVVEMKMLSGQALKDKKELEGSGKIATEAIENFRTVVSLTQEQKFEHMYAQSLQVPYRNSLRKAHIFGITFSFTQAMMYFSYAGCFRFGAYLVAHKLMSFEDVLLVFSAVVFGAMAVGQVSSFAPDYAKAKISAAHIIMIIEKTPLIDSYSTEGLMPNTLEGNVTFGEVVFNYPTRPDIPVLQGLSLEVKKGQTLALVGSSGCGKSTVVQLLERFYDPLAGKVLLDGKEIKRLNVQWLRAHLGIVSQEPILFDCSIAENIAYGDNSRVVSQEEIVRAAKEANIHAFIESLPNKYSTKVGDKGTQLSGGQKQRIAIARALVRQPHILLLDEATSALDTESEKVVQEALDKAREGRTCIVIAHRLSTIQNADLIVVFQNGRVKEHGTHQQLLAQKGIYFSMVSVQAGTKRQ

## CC1CC(=O)c2c3c(n(CCc4ccccc4)c2C1)-c1ccccc1C3=O (stereo unspecified)
[1]
  IC50: 0.768 µM
[2]
  Ki: 0.323 µM
[3]
  Ki: 0.843 µM

## CC1CC(=O)c2c3c(n(CCc4ccccc4)c2C1)-c1cc(OCCCCCCCCOc2ccc4c(c2)-c2c(c5c(n2CCc2ccccc2)CC(C)CC5=O)C4=O)ccc1C3=O (stereo unspecified)
[1]
  IC50: > 10 µM

## CC1CC(=O)c2c3c(n(CCc4ccccc4)c2C1)-c1cc(OCCCCCCCCCCCCOc2ccc4c(c2)-c2c(c5c(n2CCc2ccccc2)CC(C)CC5=O)C4=O)ccc1C3=O (stereo unspecified)
[1]
  IC50: > 10 µM

## COc1cccc(CCn2c3c(c4c(OCCCCOc5cccc6c5c5c(n6CCc6cccc(OC)c6)-c6ccccc6C5=O)cccc42)C(=O)c2ccccc2-3)c1
[4]
  Ki: 0.113 µM
[5]
  inhibition (INH): Not Active
[6]
  Ki: 0.029 µM
[7]
  inhibition (INH): Not Active
[8]
  GI50 at 72 h: 79.6 µM
[1]
  IC50: 0.0241 µM
ABCG2 [9]
  selectivity ratio: 3300
[10]
  Ki: 0.017 µM
[11]
  GI50 at 72 h: 51.8 µM
ABCG2 [12]
  selectivity ratio: 2160

## CC1CC(=O)c2c3c(n(CCc4ccccc4)c2C1)-c1cc(OCCCCOc2ccc4c(c2)-c2c(c5c(n2CCc2ccccc2)CC(C)CC5=O)C4=O)ccc1C3=O (stereo unspecified)
[5]
  inhibition (INH): Not Active
[7]
  inhibition (INH): Not Active
[8]
  GI50 at 72 h: 109 µM
[1]
  IC50: 0.867 µM
ABCG2 [9]
  selectivity ratio: 126
[11]
  GI50 at 72 h: 109 µM
ABCG2 [12]
  selectivity ratio: 126

## COc1cccc(CCn2c3c(c4c(OCCCCCCOc5cccc6c5c5c(n6CCc6cccc(OC)c6)-c6ccccc6C5=O)cccc42)C(=O)c2ccccc2-3)c1
[5]
  inhibition (INH): Not Active
[7]
  inhibition (INH): Not Active
[1]
  IC50: 0.0274 µM
ABCG2 [9]
  selectivity ratio: ≥ 70000
ABCG2 [12]
  selectivity ratio: ≥ 70000

## COc1cccc(CCn2c3c(c4c(OCCCCCCCCCCCCOc5cccc6c5c5c(n6CCc6cccc(OC)c6)-c6ccccc6C5=O)cccc42)C(=O)c2ccccc2-3)c1
[1]
  IC50: > 10 µM

## COc1cccc(CCn2c3c(c4c(OCCCCCCCCCCOc5ccc6c(c5)-c5c(c7c(n5CCc5ccccc5)CC(C)CC7=O)C6=O)cccc42)C(=O)c2ccccc2-3)c1 (stereo unspecified)
[1]
  IC50: > 10 µM

## COc1cccc(CCn2c3c(c4c(OCCOc5ccc6c(c5)-c5c(c7c(n5CCc5ccccc5)CC(C)CC7=O)C6=O)cccc42)C(=O)c2ccccc2-3)c1 (stereo unspecified)
[13]
  inhibition (INH): Active
[8]
  GI50 at 72 h: 221 µM
[1]
  IC50: 0.068 µM
ABCG2 [9]
  selectivity ratio: 3250
[11]
  GI50 at 72 h: 221 µM
ABCG2 [12]
  selectivity ratio: 3250

## COc1cccc(CCn2c3c(c4c(OCCCCCCCCOc5ccc6c(c5)-c5c(c7c(n5CCc5ccccc5)CC(C)CC7=O)C6=O)cccc42)C(=O)c2ccccc2-3)c1 (stereo unspecified)
[5]
  inhibition (INH): Not Active
[7]
  inhibition (INH): Not Active
[8]
  GI50 at 72 h: > 20 µM
[1]
  IC50: 0.389 µM
ABCG2 [9]
  selectivity ratio: > 52
[11]
  GI50 at 72 h: > 20 µM
ABCG2 [12]
  selectivity ratio: > 52

## COc1cccc(CCn2c3c(c4c(OCCCCCCCCCCCCOc5ccc6c(c5)-c5c(c7c(n5CCc5ccccc5)CC(C)CC7=O)C6=O)cccc42)C(=O)c2ccccc2-3)c1 (stereo unspecified)
[1]
  IC50: > 10 µM

## COc1cccc(CCn2c3c(c4c(OCCCCOc5ccc6c(c5)-c5c(c7c(n5CCc5ccccc5)CC(C)CC7=O)C6=O)cccc42)C(=O)c2ccccc2-3)c1 (stereo unspecified)
[5]
  inhibition (INH): Not Active
[7]
  inhibition (INH): Not Active
[8]
  GI50 at 72 h: 295 µM
[1]
  IC50: 0.133 µM
ABCG2 [9]
  selectivity ratio: 2230
[11]
  GI50 at 72 h: 295 µM
ABCG2 [12]
  selectivity ratio: 2230

## CC1CC(=O)c2c3c(n(CCc4ccccc4)c2C1)-c1cc(OCCCCCCCCCCOc2ccc4c(c2)-c2c(c5c(n2CCc2ccccc2)CC(C)CC5=O)C4=O)ccc1C3=O (stereo unspecified)
[1]
  IC50: > 10 µM

## CC1CC(=O)c2c3c(n(CCc4ccccc4)c2C1)-c1cc(OCCCCCCOc2ccc4c(c2)-c2c(c5c(n2CCc2ccccc2)CC(C)CC5=O)C4=O)ccc1C3=O (stereo unspecified)
[1]
  IC50: > 10 µM

## COc1cccc(CCn2c3c(c4c(OCCCCCCCCOc5cccc6c5c5c(n6CCc6cccc(OC)c6)-c6ccccc6C5=O)cccc42)C(=O)c2ccccc2-3)c1
[1]
  IC50: > 10 µM

## COc1cccc(CCn2c3c(c4c(OCCCCCCCCCCOc5cccc6c5c5c(n6CCc6cccc(OC)c6)-c6ccccc6C5=O)cccc42)C(=O)c2ccccc2-3)c1
[1]
  IC50: > 10 µM

## COc1cccc(CCn2c3c(c4c(OCCOc5cccc6c5c5c(n6CCc6cccc(OC)c6)-c6ccccc6C5=O)cccc42)C(=O)c2ccccc2-3)c1
[5]
  inhibition (INH): Not Active
[7]
  inhibition (INH): Not Active
[8]
  GI50 at 72 h: 917 µM
[1]
  IC50: 0.0384 µM
ABCG2 [9]
  selectivity ratio: ≥ 2630
[11]
  GI50 at 72 h: > 100 µM

## COc1cccc(CCn2c3c(c4c(O)cccc42)C(=O)c2ccccc2-3)c1
[1]
  IC50: 0.732 µM
[14]
  Ki: 0.25 µM
[2]
  Ki: 0.188 µM
[3]
  Ki: 0.294 µM

## COc1cccc(CCn2c3c(c4c(OCCCCCCOc5ccc6c(c5)-c5c(c7c(n5CCc5ccccc5)CC(C)CC7=O)C6=O)cccc42)C(=O)c2ccccc2-3)c1 (stereo unspecified)
[5]
  inhibition (INH): Not Active
[7]
  inhibition (INH): Not Active
[8]
  GI50 at 72 h: > 100 µM
[1]
  IC50: 0.0326 µM
ABCG2 [9]
  selectivity ratio: > 3070
[10]
  Ki: 0.038 µM
[11]
  GI50 at 72 h: > 100 µM
[2]
  Ki: 0.192 µM
ABCG2 [12]
  selectivity ratio: > 3070
[3]
  Ki: 0.042 µM

## CC1CC(=O)c2c3c(n(CCc4ccccc4)c2C1)-c1cc(OCCOc2ccc4c(c2)-c2c(c5c(n2CCc2ccccc2)CC(C)CC5=O)C4=O)ccc1C3=O (stereo unspecified)
[5]
  inhibition (INH): Not Active
[7]
  inhibition (INH): Not Active
[8]
  GI50 at 72 h: 242 µM
[1]
  IC50: 0.319 µM
ABCG2 [9]
  selectivity ratio: 758
[11]
  GI50 at 72 h: 242 µM
ABCG2 [12]
  selectivity ratio: 758

— ChEMBL document CHEMBL4818994, “Uncompetitive nanomolar dimeric indenoindole inhibitors of the human breast cancer resistance pump ABCG2” (Eur J Med Chem, 2021)
